#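 Protocol summary: plate cells (96-well), add compound at 5 concentrations, incubate 48 h, interpolate endpoints linearly. GI50 is the concentration that inhibits growth by half. TGI is the concentration that stops growth completely.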
# Test system: CCRF-CEM leukemia
# Assay: NCI-60 cell line screen, 48 h
SMILES,GI50 [µM],TGI [µM]
CCOC(=O)c1c(C)n(Cc2ccc(Cl)cc2Cl)c2c1c(CN(C)C)c(O)c1[nH]cnc12,2.37,8.18
CCOc1ccccc1NC(=O)CC(C(=O)OC)C(=O)C(=O)OC (stereo not drawn),–,> 100
C[C@@]12CC=C3c4nc(Nc5cccc(O)c5)sc4CC[C@]3(C)[C@H]1CC[C@]1(C)C(=O)CC[C@@H]21,1.83,> 100
CN1C(=O)c2cccc3cc([N+](=O)[O-])cc(c23)C1=O,–,> 10
COC(=O)C1=C(C)N(NC(=O)OC(C)(C)C)C(=O)C1=P(c1ccccc1)(c1ccccc1)c1ccccc1,–,> 100
O=C1OC(c2ccccc2)=N/C1=C\c1cccc2ccccc12,–,> 100
Cc1cccc(NC(=O)/C(=N\NC(C)(C)C)C2NC(=S)NC2=O)c1C (stereo not drawn),–,> 100
C[C@@H]1CC(=O)C2CCCC1C2=O (stereo partly drawn),–,> 100
c1ccc(CNn2nnc3ccccc32)cc1,–,> 100
CN1c2ccc(Cl)cc2C(=O)NC1c1ccc([N+](=O)[O-])s1 (stereo not drawn),–,> 100

# Test system: UO-31 renal
# Assay: NCI-60 cell line screen, 48 h
SMILES,TGI [µM],GI50 [µM]
Cc1nc(N)sc1C(=O)/C=C\c1ccc2c(c1)OCO2,> 100,–
COc1cc(C(C)O)c[n+](CCc2c[nH]c3ccccc23)c1 (stereo not drawn),> 100,–
CN1CCN(CCCOc2ccc3nc(Nc4ccc(Cl)c(C(F)(F)F)c4)ccc3c2)CC1,29.4,14.5
CC1(C)SCc2nc3ncccc3n21,> 100,–
Cn1c(=O)c(C(c2ccc([N+](=O)[O-])cc2)c2c(O)c3ccccc3n(C)c2=O)cc2ccccc21 (stereo not drawn),> 100,–
Cc1cn(C2CC(O)C(CO)O2)c(=O)n2nnnc12 (stereo not drawn),> 100,–
COc1ccc(C(=O)C(C(=O)CCC(=O)Nc2cccc(Cl)c2)c2ccc(OC)cc2)cc1 (stereo not drawn),> 100,–
CCOC(=O)C1=C(C)N(NC(=O)Nc2ccccc2)C(=O)C1=P(c1ccccc1)(c1ccccc1)c1ccccc1,> 100,–
COc1cc(C=C2C(=O)NC(=O)NC2=O)cc(OC)c1OC,> 100,–
Nn1c(=O)n(Cc2ccccc2)n(-c2ccccc2)c1=O,> 100,–
OC[C@H]1CCCC1O (stereo partly drawn),> 100,–
Cc1cc(C(=O)Nc2ncc(Cc3cccc(C(F)(F)F)c3)s2)c2ccccc2n1,> 100,1.5
N#CCN1C(=O)c2cccc3cc([N+](=O)[O-])cc(c23)C1=O,> 100,–
O=C1CCN2C(=O)CCN12,> 100,–
O=C1OC(C(O)CO)C(=O)C1=O (stereo not drawn),4600,1850
C=C1C(=O)O[C@H]2[C@H]1CC/C(COC(=O)C(=O)c1cn(Cc3ccccc3)c3ccccc13)=C\CC[C@@]1(C)O[C@@H]21,3.1,1.61
Clc1nc(Cl)c(Cl)c(-c2ccccc2)n1,34.7,–

SMILES,TGI [µM],GI50 [µM]
CC1CC[C@]2(C(=O)O)CCC3(C)C(=CC(=O)C4[C@@]5(C)CCC(=O)C(C)(C)C5CC[C@]43C)[C@@H]2[C@H]1C (stereo partly drawn),38.1,–
COC(C(O)CO)C(O)C(O)C(=O)NNc1ccccc1 (stereo not drawn),> 100,–
CC(C)C(Nc1c2ccccc2nc2ccccc12)C(=O)O (stereo not drawn),> 100,–
COc1ccccc1CCc1cc(OC)c(OC)c(OC)c1,61.3,–
COc1cc2c(cc1OC)C(CC(=O)NN=C(C)C)NCC2 (stereo not drawn),> 100,–
COC(=O)/C(=N\Nc1nnc(C)n1N)C(C#N)c1ccc(Cl)cc1 (stereo not drawn),> 100,–
Cc1cccc(NC(=O)C(=O)C(C(=O)c2ccc3ccccc3c2)C2OC(=O)c3ccccc32)c1C (stereo not drawn),35.7,–
CS/C(N)=N\NC(=O)CCC(=O)Nc1ccccc1C(F)(F)F,> 100,–
CC(C)(C)c1ccc2c(c1)S(=O)(=O)Nc1ccccc1NS(=O)(=O)c1cc(C(C)(C)C)ccc1OCCOCCOCCO2,> 100,–
CC(=O)[O-].CCN(CC)c1ccc(C=NCCN=Cc2ccc(N(CC)CC)cc2[O-])c([O-])c1.[Mn+3],> 100,> 100
NC(N)=N/N=C(\c1nc2ccc([N+](=O)[O-])cc2[nH]c1=O)C(O)c1ccc([N+](=O)[O-])cc1 (stereo not drawn),> 100,–
COc1cc2nc3cc([N+](=O)[O-])ccc3c(NCCCNCCO)c2cc1OC,14.2,2.15
CCC[CH2][Sn]1([CH2]CCC)[O]CC(CN2CCCC2)[O]1 (stereo not drawn),31.3,17
CC1(C)C(=O)N(CCCCCCN2C(=O)C(C)(C)c3ccccc32)c2ccccc21,92.6,–
NCCCCN(CCCN)/[N+]([O-])=N\O,> 100,–
CCOC(=O)c1c(C)n(Cc2ccc(Cl)cc2Cl)c2c1c(CN(C)C)c(O)c1[nH]cnc12,36.5,18.9

# Reference: PubChem BioAssay (NCI)
